Experimental data reported in US10105400B2, “Composition of chicken liver hydrolysates and method for improving alcohol metabolism, as well as preventing and treating liver fibrosis” (NATIONAL TAIWAN UNIVERSITY, priority 2016, dated 2018).
Marks after values point to notes of the source that are not given here.

Experiments:
collagen = experiment: Collagen deposition in livers (Sirius red stain, collagen kit), TAA model; type: in vivo, Wistar rats
Protocol: (§1) Forty male Wistar rats of 5-week old were purchased from BioLASCO Taiwan Co., Ltd. (Taipei, Taiwan). Two rats were housed in one cage in an animal room at 22±2° C. with a 12/12 h light-dark cycle. After one week of acclimation, the mice were randomly divided into 5 groups:
(§2) (b) The thioacetamide group (The TAA group): intraperitoneal injection of 100 mg TAA/kg-body weight (bw) in 0.3 mL ddH2O and administration of 0.5 mL ddH2O by oral gavage;
(c) The composition of the chicken liver hydrolysates with low dosage (The CLH-L group): intraperitoneal injection of 100 mg TAA/kg-bw in 0.3 mL ddH2O and administration of 200 mg/kg-bw CLH in 0.5 mL ddH2O by oral gavage; […]
(§3) The experiment was conducted by a complete randomized design. The raw data was expressed as “mean±SEM”. The data was analyzed by analysis of variance (ANOVA) and Fisher's Least Significant Different (LSD) test was used to distinguish significant differences among groups. […]
Sirius red dye can bind to the helical structure of the collagen, and thus the Sirius red stain assay can be used to examine the deposition of collagen in livers. Furthermore, liver collagen levels of the mice are also determined by using commercial kits (Chondres Inc., Redmond, Wash., USA). […] The collagen content in the sample is calculated by using a standard curve plotted by bovine Type I collagen and expressed as μg/mg-protein. […]

[1] = Body weight and feed efficiency, thioacetamide (TAA) liver fibrosis model; type: in vivo, Wistar rats; settings: CNS group: 200 mg/kg-bw carnosine oral gavage daily, 10 weeks, TAA 100 mg/kg-bw i.p.
Protocol: as §1
(a) The control group (The CON group): intraperitoneal injection of 0.3 mL normal saline, and administration of 0.5 mL ddH2O by oral gavage;
as §2
(§4) (c) The composition of the chicken liver hydrolysates with low dosage (The CLH-L group): intraperitoneal injection of 100 mg TAA/kg-bw in 0.3 mL ddH2O and administration of 200 mg/kg-bw CLH in 0.5 mL ddH2O by oral gavage;
(§5) (d) The composition of the chicken liver hydrolysates with high dosage (The CLH-H group): intraperitoneal injection of 100 mg TAA/kg-bw in 0.3 mL ddH2O and administration of 600 mg/kg-bw CLH in 0.5 mL ddH2O by oral gavage; and (e) The carnosine group (The CNS group): intraperitoneal injection of 100 mg TAA/kg-bw in 0.3 mL ddH2O and administration of 200 mg/kg-bw carnosine in 0.5 mL ddH2O by oral gavage;
(§6) The experiment lasted for 10 weeks. The rats were injected with ddH2O or TAA intraperitoneally once a week and administered of ddH2O, the composition of the chicken liver hydrolysates or carnosine every day. One kilogram of the chow diet comprises 487 g carbohydrate, 239 g protein, 50 g fat, 51 g fibre and 70 g ash (Laboratory Rodent Diet 5001, PMI Nutrition International/Purina Mills LLC, Richmond, Ind., USA). All rats were fasted overnight before euthanized at the last day of experiment, the organs and the tissues were collected and weighted, and stored at −80° C. for further analysis.
as §3

[2] = tested on: thioacetamide (TAA)-treated; experiment: Biochemical indexes of liver in sera, TAA liver fibrosis model; type: in vivo, Wistar rats; settings: serum; CNS group: 200 mg/kg-bw carnosine oral gavage daily, 10 weeks, TAA 100 mg/kg-bw i.p.
Protocol: as §1, §2, §4, §5, §6
(§7) The experiment was conducted by a complete randomized design. The raw data was expressed as “mean±SEM”. The data was analyzed by analysis of variance (ANOVA) and Fisher's Least Significant Different (LSD) test was used to distinguish significant differences among groups. All statistical analysis of the data was performed by SAS9.2 software (SAS Institute Inc, Cary, N.C., USA). If there is no significant difference between two groups, these groups werelabeled with one identical letter.

[3] = tested on: thioacetamide (TAA)-treated mice; experiment: as above; type: in vivo, Wistar rats; settings: serum; CNS group: 200 mg/kg-bw carnosine oral gavage daily, 10 weeks, TAA 100 mg/kg-bw i.p.
Protocol: as §1, §2, §4, §5, §6, §7

[4] = Relative sizes of organs and tissues, TAA liver fibrosis model; type: in vivo, Wistar rats
Protocol: as §1, §2, §4, §5, §6, §7

lipid peroxidation = experiment: Thiobarbituric acid reactive substance (TBARS) value of sera and livers, alcohol liquid diet mice; type: in vivo, C57/BL/6J (B6) mice; settings: SLM group: 150 mg/kg-bw silymarin oral gavage, 8 weeks, ethanol diet
Protocol: (§8) Forty eight male C57/BL/6J (B6) mice of 8-week old were purchased from the Laboratory Animal Center of National Taiwan University. The body weight of these B6 mice were approximately 19 g to 21 g. Two mice were housed in one cage in an animal room at 22±2° C. with a 12/12 hr light-dark cycle. After one week of acclimation, the mice were randomly divided into 6 groups: […]
(§9) (f) The silymarin group (The SLM group): administered with the Lieber-DeCarli regular ethanol diet and 150 mg/kg-bw of silymarin in 0.2 mL ddH2O by oral gavage.
(§10) The animal experiment lasted for 8 weeks; the body weight of each mouse was recorded at the beginning and the end of the experiment. The daily liquid feed (mL) intakes as a food intake of each mouse was calculated. […]
(§11) The experiment was conducted by a complete randomized design. […] The data was analyzed by one way-analysis of variance (ANOVA) and Fisher's Least Significant Different test to distinguish significant differences among groups. […]
(§12) To evaluate the antioxidative ability of the composition of the chicken liver hydrolysates, the ABTS^+ free radical clearing ability is tested and represented as trolox equivalent antioxidant capacity (TEAC). The lipid peroxidation is also determined by thiobarbituric acid reactive substance (TBARS) value.

ABTS+ free radical = experiment: Trolox equivalent antioxidant capacity (TEAC) of sera and livers, alcohol liquid diet mice; type: in vivo, C57/BL/6J (B6) mice; settings: SLM group: 150 mg/kg-bw silymarin oral gavage, 8 weeks, ethanol diet
Protocol: as §8, §9, §10, §11, §12

[5] = Body weight, food intake and relative sizes of organs and tissues of mice fed alcohol liquid diet; type: in vivo, C57/BL/6J (B6) mice; settings: SLM group: 150 mg/kg-bw silymarin oral gavage, 8 weeks, ethanol diet
Protocol: Forty eight male C57/BL/6J (B6) mice of 8-week old were purchased from the Laboratory Animal Center of National Taiwan University. The body weight of these B6 mice were approximately 19 g to 21 g. Two mice were housed in one cage in an animal room at 22±2° C. with a 12/12 hr light-dark cycle. After one week of acclimation, the mice were randomly divided into 6 groups:
(a) The control group (the CON group): administered with the control liquid diet and 0.2 mL ddH2O by oral gavage.
(b) The ethanol group (the EtOH group): administered with the Lieber-DeCarli regular ethanol diet and 0.2 mL ddH2O by oral gavage.
(c) The composition of the chicken liver hydrolysates with low dosage (The CLH-L group): administered with the Lieber-DeCarli regular ethanol diet and 80 mg/kg-body weight (bw) of the composition of the chicken liver hydrolysates in 0.2 mL ddH2O by oral gavage.
(d) The composition of the chicken liver hydrolysates with medium dossage (The CLH-M group): administered with the Lieber-DeCarli regular ethanol diet and 320 mg/kg-bw of the composition of the chicken liver hydrolysates CLH in 0.2 mL ddH2O by oral gavage.
(e) The composition of the chicken liver hydrolysates with high dosage (The CLH-H group): administered with the Lieber-DeCarli regular ethanol diet and 1280 mg/kg-bw of the composition of the chicken liver hydrolysates in 0.2 mL ddH2O by oral gavage.
as §9
The animal experiment lasted for 8 weeks; the body weight of each mouse was recorded at the beginning and the end of the experiment. The daily liquid feed (mL) intakes as a food intake of each mouse was calculated. Mice were sacrificed after 8 weeks and the blood, heart, kidney, epididymal fat tissue, and perirenal fat tissue were all collected, weighted and then stored at −80° C. for further analysis.
The experiment was conducted by a complete randomized design. The raw data was presented as “mean±standard error of the mean (SEM)”. The data was analyzed by one way-analysis of variance (ANOVA) and Fisher's Least Significant Different test to distinguish significant differences among groups. All statistical analysis of data was performed by SAS9.2 software (SAS Institute Inc, Cary, N.C., USA). If there is no significant difference between two groups, these groups were labeled with one identical letter.

[6] = CNS group: 200 mg/kg-bw carnosine oral gavage daily, 10 weeks, TAA 100 mg/kg-bw i.p.

NCCC(=O)N[C@@H](Cc1cnc[nH]1)C(=O)O [CNS, carnosine]
liver collagen content (collagen; CNS group (carnosine 200 mg/kg-bw) compared to TAA group, FIG. 7(B)): significantly decreased | collagen deposition in livers (Sirius red stain) (collagen; CNS group (carnosine 200 mg/kg-bw) vs TAA group, FIG. 7(A)): remarkably decreased | Feed efficiency [1]: 8.89 ± 0.33^b % | Final body weight [1]: 380.61 ± 10.47^b g | Weight increase [1]: 163.99 ± 7.63^a g | ALT [2]: 63.88 ± 5.86^b U/L | AST [3]: 211.00 ± 24.57^b U/L | Blood urea nitrogen [3]: 15.4 ± 0.89 mg/dL | Total cholesterol [3]: 52.38 ± 3.53^a mg/dL | Total protein [3]: 4.26 ± 0.24^b g/dL | Triglyceride [3]: 33.25 ± 3.19^b mg/dL | Relative size Heart [4, 6]: 0.31 ± 0.01^a g/100 g-bw | Relative size Kidney [4, 6]: 0.74 ± 0.01^a g/100 g-bw | Relative size Liver [4, 6]: 4.14 ± 0.09^a g/100 g-bw | Relative size Perirenal fat [4, 6]: 1.47 ± 0.11^a g/100 g-bw | Relative size Spleen [4, 6]: 0.31 ± 0.02^a g/100 g-bw | relative sizes of liver, kidney and spleen ([4]; carnosine 200 mg/kg-bw vs TAA group, p>0.05): does not decrease

COc1cc(C2Oc3cc([C@H]4Oc5cc(O)cc(O)c5C(=O)[C@@H]4O)ccc3OC2CO)ccc1O (stereo partly drawn) [SLM, silymarin]
TBARS Liver (lipid peroxidation): 0.64 ± 0.12^ab nmole MDA eq./mg-protein | TBARS Serum (lipid peroxidation): 52.62 ± 2.26^bc nmole MDA eq./mL | TEAC Liver (ABTS+ free radical): 294.16 ± 14.82^a nmole/mg-protein | TEAC Serum (ABTS+ free radical): 4.48 ± 0.18^b nmole/mL | Relative size Epididymal fat tissue [5]: 1.68 ± 0.15^bc g/100 g-bw | Relative size Heart [5]: 0.45 ± 0.01^ab g/100 g-bw | Relative size Kidney [5]: 1.19 ± 0.04^ab g/100 g-bw | Relative size Liver [5]: 4.45 ± 0.06^a g/100 g-bw | Relative size Perirenal fat tissue [5]: 0.37 ± 0.04^b g/100 g-bw | Relative size Spleen [5]: 0.18 ± 0.01^b g/100 g-bw
